Laboratory results as given in patent publication US20110077248A1, “IMIDAZOPYRIDINE AND RELATED ANALOGS AS SIRTUIN MODULATORS” (Sirtris Pharmaceuticals, Inc., priority 2008, published 2011).

Biological target: T1, SIRT1 (Homo sapiens, UniProt Q96EB6)
T1 construct: His-tag (N); made in house; host or cells: E. coli BL21(DE3), T7-promoter vector
T1 sequence (Q96EB6 1-747): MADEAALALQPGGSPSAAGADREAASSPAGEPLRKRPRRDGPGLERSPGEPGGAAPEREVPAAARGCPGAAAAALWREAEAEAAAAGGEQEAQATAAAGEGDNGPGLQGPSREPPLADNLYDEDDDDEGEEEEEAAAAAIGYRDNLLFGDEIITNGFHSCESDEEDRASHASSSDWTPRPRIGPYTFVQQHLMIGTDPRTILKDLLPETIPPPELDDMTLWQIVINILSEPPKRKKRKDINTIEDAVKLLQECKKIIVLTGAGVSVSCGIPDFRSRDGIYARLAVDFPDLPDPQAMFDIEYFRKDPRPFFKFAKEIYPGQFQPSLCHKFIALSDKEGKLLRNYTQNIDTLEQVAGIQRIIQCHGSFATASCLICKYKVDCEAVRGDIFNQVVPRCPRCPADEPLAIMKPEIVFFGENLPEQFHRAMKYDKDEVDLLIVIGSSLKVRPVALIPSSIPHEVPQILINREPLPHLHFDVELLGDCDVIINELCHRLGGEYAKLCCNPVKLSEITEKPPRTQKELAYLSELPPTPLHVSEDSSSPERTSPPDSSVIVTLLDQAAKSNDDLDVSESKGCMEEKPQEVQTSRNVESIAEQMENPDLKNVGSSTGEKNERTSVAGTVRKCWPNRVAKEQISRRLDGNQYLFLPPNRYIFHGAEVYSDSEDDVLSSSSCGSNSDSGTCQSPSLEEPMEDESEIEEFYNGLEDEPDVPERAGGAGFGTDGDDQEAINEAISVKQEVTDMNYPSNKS
Assay: Mass spectrometry based assay for modulators of SIRT1 activity (deacetylation of p53-based acetylated peptide)
Type: biochemical
Settings: for EC1.5: concentration of test compound that results in 150% activation of SIRT1, 0.5 μM peptide substrate, 120 μM βNAD+, 10 nM SIRT1, 25 min, 25° C.; for Emax: percent maximum fold activation of SIRT1
Text: A mass spectrometry based assay was used to identify modulators of SIRT1 activity. The mass spectrometry based assay utilizes a peptide having 20 amino acid residues as follows: Ac-EE-K(biotin)-GQSTSSHSK(Ac)NleSTEG-K(5TMRi)-EE-NH2 (SEQ ID NO: 1) wherein K(Ac) is an acetylated lysine residue and Nle is a norleucine. The peptide is labeled with the fluorophore 5TMR (excitation 540 nm/emission 580 nm) at the C-terminus. The sequence of the peptide substrate is based on p53 with several modifications. In addition, the methionine residue naturally present in the sequence was replaced with the norleucine because the methionine may be susceptible to oxidation during synthesis and purification.
The mass spectrometry assay is conducted as follows: 0.5 μM peptide substrate and 120 μM βNAD+ is incubated with 10 nM SIRT1 for 25 minutes at 25° C. in a reaction buffer (50 mM Tris-acetate pH 8, 137 mM NaCl, 2.7 mM KCl, 1 mM MgCl2, 5 mM DTT, 0.05% BSA). Test compounds may be added to the reaction as described above. The SirT1 gene is cloned into a T7-promoter containing vector and transformed into BL21(DE3). After the 25 minute incubation with SIRT1, 10 μL of 10% formic acid is added to stop the reaction. Reactions are sealed and frozen for later mass spec analysis. Determination of the mass of the substrate peptide allows for precise determination of the degree of acetylation (i.e. starting material) as compared to deacetylated peptide (product).
A control for inhibition of sirtuin activity is conducted by adding 1 μL of 500 mM nicotinamide as a negative control at the start of the reaction (e.g., permits determination of maximum sirtuin inhibition). A control for activation of sirtuin activity is conducted using 10 nM of sirtuin protein, with 1 μL of DMSO in place of compound, to determinine the amount of deacetylation of the substrate at a given timepoint within the linear range of the assay. This timepoint is the same as that used for test compounds and, within the linear range, the endpoint represents a change in velocity.
For the above assay, SIRT1 protein was expressed and purified as follows. The SirT1 gene was cloned into a T7-promoter containing vector and transformed into BL21(DE3). The protein was expressed by induction with 1 mM IPTG as an N-terminal His-tag fusion protein at 18° C. overnight and harvested at 30,000×g. Cells were lysed with lysozyme in lysis buffer (50 mM Tris-HCl, 2 mM Tris[2-carboxyethyl]phosphine (TCEP), 10 μM ZnCl2, 200 mM NaCl) and further treated with sonication for 10 min for complete lysis. The protein was purified over a Ni-NTA column (Amersham) and fractions containing pure protein were pooled, concentrated and run over a sizing column (Sephadex S200 26/60 global). The peak containing soluble protein was collected and run on an Ion-exchange column (MonoQ). Gradient elution (200 mM-500 mM NaCl) yielded pure protein. This protein was concentrated and dialyzed against dialysis buffer (20 mM Tris-HCl, 2 mM TCEP) overnight. The protein was aliquoted and frozen at −80° C. until further use.
Sirtuin modulating compounds that activated SIRT1 were identified using the assay described above and are shown below in Table 1. The EC1.5 values represent the concentration of test compounds that result in 150% activation of SIRT1. The EC1.5 values for the activating compounds are represented by A (EC1.5<1.0 uM), B (EC1.5 1-25 uM), C (EC1.5>25 uM). The percent maximum fold activation is represented by A (Fold activation >200%) or B (Fold Activation <200%). “NT” indicates the compound was not tested in a particular assay.

EC1.5 | Emax | SMILES
B (EC1.5 1-25 uM) | < 200% | O=C(Nc1nccs1)c1cccn2cc(-c3ccccc3)nc12 [Compound 106]
B (EC1.5 1-25 uM) | > 200% | O=C(Nc1cccc(CN2CCOCC2)n1)c1cccn2nc(-c3cccc(C(F)(F)F)c3)nc12 [Compound 178]
C (EC1.5>25 uM) | < 200% | O=C(Nc1nccs1)c1cccn2cc(-c3ccc(N4CCOCC4)cc3)nc12 [Compound 183]
A (EC1.5<1.0 uM) | > 200% | O=C(Nc1ccccn1)c1cccn2nc(-c3ccc(N4CCOCC4)cc3C(F)(F)F)nc12 [Compound 220]
C (EC1.5>25 uM) | < 200% | Cc1ncccc1-c1nc2c(C(=O)Nc3nccs3)cccn2n1 [Compound 239, 2-(2-methylpyridin-3-yl)-N-(thiazol-2-yl)-[1,2,4]triazolo[1,5-a]pyridine-8-carboxamide]
A (EC1.5<1.0 uM) | > 200% | O=C(Nc1ccccn1)c1cccn2nc(-c3cc(N4CCOCC4)ccc3C(F)(F)F)nc12 [Compound 222]
A (EC1.5<1.0 uM) | > 200% | O=C(Nc1nccs1)c1cccn2cc(-c3cccc(CN4CCOCC4)c3)nc12 [Compound 254]
C (EC1.5>25 uM) | < 200% | O=C(Nc1cccn2cc(-c3ccccc3)nc12)c1cccc(N2CCCC2)c1 [Compound 131]
C (EC1.5>25 uM) | < 200% | O=C(Nc1cccn2cc(-c3cccc(C(F)(F)F)c3)nc12)c1cccnc1 [Compound 120]
A (EC1.5<1.0 uM) | > 200% | Cc1cnc(NC(=O)c2nccn3cc(-c4ccccc4C(F)(F)F)nc23)s1 [Compound 173]

Continued, molecule first:

SMILES | EC1.5 | Emax
O=C(Nc1cnccn1)c1nccn2cc(-c3ccccc3C(F)(F)F)nc12 [Compound 176] | B (EC1.5 1-25 uM) | > 200%
O=C(Nc1cccc(CN2CCOCC2)n1)c1cccn2cc(-c3cccc(C(F)(F)F)c3)nc12 [Compound 160] | A (EC1.5<1.0 uM) | > 200%
Cc1ccc(-c2cn3ccnc(C(=O)Nc4nc(CN5CCOCC5)cs4)c3n2)cn1 [Compound 164] | B (EC1.5 1-25 uM) | < 200%
O=C(Nc1nccs1)c1cccn2nc(-c3ccc(OCC(O)CO)cc3C(F)F)nc12 (stereo in doubt) [Compound 249, (R)-2-(2-(difluoromethyl)-4-(2,3-dihydroxypropoxy)phenyl)-N-(thiazol-2-yl)-[1,2,4]triazolo[1,5-a]pyridine-8-carboxamide] | C (EC1.5>25 uM) | < 200%
O=C(Nc1nccs1)c1cccn2cc(-c3ccc(CN4CCOCC4)cc3)nc12 [Compound 262, 2-(4-(morpholinomethyl)phenyl)-N-(thiazol-2-yl)imidazo[1,2-a]pyridine-8-carboxamide] | B (EC1.5 1-25 uM) | > 200%
O=C(Nc1ccccn1)c1nccn2cc(-c3ccccc3C(F)(F)F)nc12 [Compound 172] | B (EC1.5 1-25 uM) | > 200%
O=C(Nc1cccc(CN2CCOCC2)n1)c1cccn2cc(-c3ccc(C(F)F)cc3)nc12 [Compound 205] | A (EC1.5<1.0 uM) | > 200%
O=C(Nc1nccs1)c1cccn2nc(-c3ccccc3OC(F)F)nc12 [Compound 225] | B (EC1.5 1-25 uM) | > 200%
O=C(Nc1nc(CN2CCOCC2)cs1)c1nccn2cc(-c3ccc(F)cc3C(F)(F)F)nc12 [Compound 260] | A (EC1.5<1.0 uM) | > 200%
O=C(Nc1cccn2cc(-c3cccc(-c4ccccc4)c3)nc12)c1ccncc1 [Compound 124] | C (EC1.5>25 uM) | < 200%
Cc1ncccc1-c1nc2c(C(=O)Nc3nc(CN4CCOCC4)cs3)cccn2n1 [Compound 241] | B (EC1.5 1-25 uM) | < 200%
O=C(Nc1ccccn1)c1cccn2cc(-c3ccc(CN4CCOCC4)cc3)nc12 [Compound 251] | B (EC1.5 1-25 uM) | > 200%
